From ChEMBL document CHEMBL1201862, “PubChem BioAssay data set” (2004)
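Where inhibition never reached the appropriate level, the endpoint shown equals the highest concentration tested. Otherwise, values were interpolated linearly from a five-concentration, 48-hour dose response in 96-well plates. The concentration for 50% growth inhibition is given as GI50.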 Calls of active or inactive are those of the source. No stated cut-off is given here; in the data, active = GI50 up to about 1.1 µM and inactive = higher.

Experiments:
Experiment in all cases: NCI-60 cell line screen, 48 h
OVCAR-5 = system: OVCAR-5
OVCAR-8 = system: OVCAR-8
HL-60 = system: HL-60
SNB-75 = system: SNB-75
NCI-H226 = system: NCI-H226
MDA-N = system: MDA-N
M14 = system: M14
SK-OV-3 = system: SK-OV-3
MCF7 = system: MCF7
MDA-MB-435 = system: MDA-MB-435
OVCAR-3 = system: OVCAR-3
IGROV-1 = system: IGROV-1
NCI-H23 = system: NCI-H23
A549 = system: A549
T47D = system: T47D
ACHN = system: ACHN
HCT-15 = system: HCT-15
UACC-257 = system: UACC-257
DU-145 = system: DU-145
COLO 205 = system: COLO 205
HOP-62 = system: HOP-62
SF-268 = system: SF-268
HCC 2998 = system: HCC 2998
UACC-62 = system: UACC-62
OVCAR-4 = system: OVCAR-4
LOX IMVI = system: LOX IMVI
SK-MEL-5 = system: SK-MEL-5
KM12 = system: KM12
MDA-MB-231 = system: MDA-MB-231
Malme-3M = system: Malme-3M
SN12C = system: SN12C
NCI-H522 = system: NCI-H522
HT-29 = system: HT-29
PC-3 = system: PC-3
MOLT-4 = system: MOLT-4
SR = system: SR
SK-MEL-28 = system: SK-MEL-28
NCI-H460 = system: NCI-H460
TK-10 = system: TK-10
CAKI-1 = system: CAKI-1
SF-295 = system: SF-295
UO-31 = system: UO-31
Hs-578T = system: Hs-578T
CCRF-CEM = system: CCRF-CEM
HOP-92 = system: HOP-92
A498 = system: A498
HCT-116 = system: HCT-116
SK-MEL-2 = system: SK-MEL-2
SNB-19 = system: SNB-19
K562 = system: K562
RPMI-8226 = system: RPMI-8226
U-251 = system: U-251
RXF 393 = system: RXF 393
SF-539 = system: SF-539
EKVX = system: EKVX
786-0 = system: 786-0
SW-620 = system: SW-620
NCI/ADR-RES = system: NCI/ADR-RES

Compound: CCN(CC)CC1CCCCN1CC(=O)N1c2ccc(Br)cc2C(=O)Nc2cccnc21 (stereo not drawn)
- GI50 (OVCAR-5): > 100 µM (inactive)
- GI50 (OVCAR-8): > 100 µM (inactive)
- GI50 (HL-60): > 100 µM (inactive)
- GI50 (SNB-75): 12.3 µM (inactive)
- GI50 (NCI-H226): > 100 µM (inactive)
- GI50 (MDA-N): > 100 µM (inactive)
- GI50 (M14): > 100 µM (inactive)
- GI50 (SK-OV-3): > 100 µM (inactive)
- GI50 (MCF7): > 100 µM (inactive)
- GI50 (MDA-MB-435): > 100 µM (inactive)
- GI50 (OVCAR-3): > 100 µM (inactive)
- GI50 (IGROV-1): > 100 µM (inactive)
- GI50 (NCI-H23): > 100 µM (inactive)
- GI50 (A549): > 100 µM (inactive)
- GI50 (T47D): > 100 µM (inactive)
- GI50 (ACHN): > 100 µM (inactive)
- GI50 (HCT-15): > 100 µM
- GI50 (UACC-257): 74.8 µM (inactive)
- GI50 (DU-145): > 100 µM (inactive)
- GI50 (COLO 205): > 100 µM (inactive)
- GI50 (HOP-62): > 100 µM (inactive)
- GI50 (SF-268): > 100 µM (inactive)
- GI50 (HCC 2998): > 100 µM (inactive)
- GI50 (UACC-62): > 100 µM (inactive)
- GI50 (OVCAR-4): > 100 µM (inactive)
- GI50 (LOX IMVI): > 100 µM (inactive)
- GI50 (SK-MEL-5): > 100 µM (inactive)
- GI50 (KM12): > 100 µM (inactive)
- GI50 (MDA-MB-231): > 100 µM (inactive)
- GI50 (Malme-3M): > 100 µM (inactive)
- GI50 (SN12C): > 100 µM (inactive)
- GI50 (NCI-H522): > 100 µM (inactive)
- GI50 (HT-29): > 100 µM (inactive)
- GI50 (PC-3): > 100 µM (inactive)
- GI50 (MOLT-4): > 100 µM (inactive)
- GI50 (SR): 57 µM (inactive)
- GI50 (SK-MEL-28): > 100 µM (inactive)
- GI50 (NCI-H460): > 100 µM (inactive)
- GI50 (TK-10): > 100 µM (inactive)
- GI50 (CAKI-1): > 100 µM (inactive)
- GI50 (SF-295): > 100 µM (inactive)
- GI50 (UO-31): 27.2 µM (inactive)
- GI50 (Hs-578T): > 100 µM (inactive)
- GI50 (CCRF-CEM): > 100 µM (inactive)
- GI50 (HOP-92): 80.4 µM (inactive)
- GI50 (A498): > 100 µM (inactive)
- GI50 (HCT-116): > 100 µM (inactive)
- GI50 (SK-MEL-2): > 100 µM (inactive)
- GI50 (SNB-19): > 100 µM (inactive)
- GI50 (K562): > 100 µM (inactive)
- GI50 (RPMI-8226): > 100 µM (inactive)
- GI50 (U-251): > 100 µM (inactive)
- GI50 (RXF 393): > 100 µM (inactive)
- GI50 (SF-539): > 100 µM (inactive)
- GI50 (EKVX): > 100 µM (inactive)
- GI50 (786-0): > 100 µM (inactive)

Compound: CN(C)c1ccc(/C=C/c2ccc(S(N)(=O)=O)cc2)cc1
- GI50 (OVCAR-5): 18 µM (inactive)
- GI50 (SNB-75): 22.7 µM (inactive)
- GI50 (MDA-N): 11.8 µM (inactive)
- GI50 (M14): 15.8 µM (inactive)
- GI50 (SK-OV-3): 17 µM (inactive)
- GI50 (MCF7): 13.4 µM (inactive)
- GI50 (OVCAR-3): 20.4 µM (inactive)
- GI50 (T47D): 27 µM (inactive)
- GI50 (UACC-257): 46.5 µM (inactive)
- GI50 (DU-145): 13.6 µM (inactive)
- GI50 (COLO 205): 24.5 µM (inactive)
- GI50 (HOP-62): 18.7 µM (inactive)
- GI50 (HCC 2998): 34 µM (inactive)
- GI50 (SK-MEL-5): 11.3 µM (inactive)
- GI50 (MDA-MB-231): 13.5 µM (inactive)
- GI50 (Malme-3M): 14 µM (inactive)
- GI50 (SN12C): 20.4 µM (inactive)
- GI50 (PC-3): 14.8 µM (inactive)
- GI50 (SK-MEL-28): 11.5 µM (inactive)
- GI50 (NCI-H460): 14.9 µM (inactive)
- GI50 (TK-10): 20.5 µM (inactive)
- GI50 (SF-295): 24.3 µM (inactive)
- GI50 (UO-31): 17.7 µM (inactive)
- GI50 (A498): 17.7 µM (inactive)
- GI50 (SW-620): 11.1 µM (inactive)
- GI50 (HCT-116): 23.1 µM (inactive)
- GI50 (SK-MEL-2): 28.2 µM (inactive)
- GI50 (SNB-19): 20.2 µM (inactive)
- GI50 (NCI/ADR-RES): 14.8 µM (inactive)
- GI50 (RXF 393): 20.7 µM (inactive)
- GI50 (EKVX): 21.8 µM (inactive)
- GI50 (786-0): 16.9 µM (inactive)

Compound: Nc1ncc2c(n1)-c1ccccc1OC2N1CCCC1 (stereo not drawn)
- GI50 (OVCAR-5): > 100 µM (inactive)
- GI50 (OVCAR-8): > 100 µM (inactive)
- GI50 (HL-60): 1.9 µM (inactive)
- GI50 (SNB-75): 29 µM (inactive)
- GI50 (NCI-H226): > 100 µM (inactive)
- GI50 (MDA-N): > 100 µM (inactive)
- GI50 (M14): > 100 µM (inactive)
- GI50 (SK-OV-3): > 100 µM (inactive)
- GI50 (MCF7): > 100 µM (inactive)
- GI50 (MDA-MB-435): > 100 µM (inactive)
- GI50 (OVCAR-3): > 100 µM (inactive)
- GI50 (IGROV-1): 80.7 µM (inactive)
- GI50 (NCI-H23): > 100 µM (inactive)
- GI50 (A549): > 100 µM (inactive)
- GI50 (ACHN): > 100 µM (inactive)
- GI50 (HCT-15): > 100 µM
- GI50 (UACC-257): > 100 µM (inactive)
- GI50 (DU-145): > 100 µM (inactive)
- GI50 (COLO 205): > 100 µM (inactive)
- GI50 (HOP-62): > 100 µM (inactive)
- GI50 (SF-268): > 100 µM (inactive)
- GI50 (UACC-62): > 100 µM (inactive)
- GI50 (OVCAR-4): > 100 µM (inactive)
- GI50 (LOX IMVI): > 100 µM (inactive)
- GI50 (SK-MEL-5): > 100 µM (inactive)
- GI50 (KM12): > 100 µM (inactive)
- GI50 (MDA-MB-231): > 100 µM (inactive)
- GI50 (Malme-3M): > 100 µM (inactive)
- GI50 (SN12C): > 100 µM (inactive)
- GI50 (NCI-H522): > 100 µM (inactive)
- GI50 (HT-29): > 100 µM (inactive)
- GI50 (PC-3): > 100 µM (inactive)
- GI50 (MOLT-4): > 100 µM (inactive)
- GI50 (SR): > 100 µM (inactive)
- GI50 (SK-MEL-28): > 100 µM (inactive)
- GI50 (NCI-H460): > 100 µM (inactive)
- GI50 (TK-10): > 100 µM (inactive)
- GI50 (CAKI-1): > 100 µM (inactive)
- GI50 (SF-295): > 100 µM (inactive)
- GI50 (UO-31): 92 µM (inactive)
- GI50 (Hs-578T): > 100 µM (inactive)
- GI50 (CCRF-CEM): > 100 µM (inactive)
- GI50 (HOP-92): 83.9 µM (inactive)
- GI50 (SW-620): > 100 µM (inactive)
- GI50 (HCT-116): > 100 µM (inactive)
- GI50 (SK-MEL-2): > 100 µM (inactive)
- GI50 (SNB-19): > 100 µM (inactive)
- GI50 (K562): > 100 µM (inactive)
- GI50 (RPMI-8226): > 100 µM (inactive)
- GI50 (NCI/ADR-RES): > 100 µM (inactive)
- GI50 (U-251): > 100 µM (inactive)
- GI50 (RXF 393): 94.8 µM (inactive)
- GI50 (SF-539): > 100 µM (inactive)
- GI50 (EKVX): 41.5 µM (inactive)
- GI50 (786-0): > 100 µM (inactive)
